In data set [1] the test system is peri- and postmenopausal subjects. As to the kind of experiment: Combination therapy of MOIW microemulsion with progesterone, menopausal symptoms. As to conditions: most perimenopausal subjects, administered daily in combination with MOIW microemulsion. Type of data set: in vivo, human. How it is done:
Dosing for this combination therapy includes use of the present MOIW microemulsion as previously described with the addition of progesterone. For use in the alleviation of menopausal symptoms, from 5 mg to 18 mg of progesterone is preferably administered daily, with 8 mg to 16 mg of progesterone providing a therapeutically effective dose for postmenopausal subjects and with 8 mg to 10 mg of progesterone providing a therapeutically effective dose for perimenopausal subjects. A therapeutically effective dose for most perimenopausal subjects was determined to be approximately 8 mg.
A preferred dosing for this combination therapy includes intra-oral administration of the MOIW microemulsion ante meridiem with topical administration of the thickened MOIW post meridiem. For perimenopausal subjects using intermittent dosing of the MOIW microemulsion, the same intermittent dosing is also preferred for the thickened MOIW microemulsion progesterone topical.

Data set [2] can be described thus: Solubility of DHEA in ethanol and MCT oil. It counts as physicochemical. The text has this:
An alcohol-soluble species is a species that is insoluble in water and has a greater solubility in ethanol than in medium chain triglyceride (MCT) oils. […] Alcohol-soluble species are preferably pharmacologically active, more preferably are a drug or a supplement, and neither include nor are water. Thus, liquids and solids may exist that technically are soluble in alcohol, but because they also are soluble in water or more or equivalently soluble in MCT oils than in ethanol are not “alcohol-soluble species”.
Solubilized means that the alcohol-soluble species to be delivered is in the solution of the droplet. […] Thus, if either average particle diameters greater than 200 nm or precipitated crystals visible to the naked eye form, the alcohol-soluble species is not solubilized in the solution of the droplet. If an alcohol-soluble species is not solubilized in the solution, it is insoluble in the solution. In many respects, solubility may be thought of as a concentration dependent continuum. For example, the following descriptive terms may be used to express solubility of a solute in a solvent (grams solid/mL of solvent) at 25 degrees Celsius: […]

Values after ≈ are worked out from the molar mass of the structure shown. Like-named read-outs stand apart in the source and are kept apart here.

Consider `CC(=O)[C@H]1CC[C@H]2[C@@H]3CCC4=CC(=O)CC[C@]4(C)[C@H]3CC[C@]12C` [progesterone], for which the “therapeutically effective dose of progesterone” value in data set [1] is “approximately 8 mg”. What is called solubility is the dissolved amount per volume that the medium holds. Take `C[C@]12CC[C@H](O)CC1=CC[C@@H]1[C@@H]2CC[C@]2(C)C(=O)CC[C@@H]12` [DHEA, dehydroepiandrosterone (3-beta-hydroxyandrosteron-5-en-17-one)]: the solubility in data set [2] (ethanol, organic solvent or mixture, read-out: solubility in ethanol) is ~150 mg/mL (≈ 520 mM); in data set [2] (medium chain triglyceride (MCT) oil, oil or lipid, MCT oil, read-out: solubility in MCT oil), ~10 mg/mL (≈ 34.7 mM).

Values taken from US12527804B2, “Microemulsion delivery systems for alcohol-soluble species including DHEA, pregnenolone, and chrysin for reducing menopausal symptoms” (Quicksilver Scientific, Inc., priority 2021, dated 2026).
